Source: the NIST ThermoML archive (doi:10.1021/je900387e)

Assay: xn = mol fraction of the nth substance listed
Details: Liquid, Pycnometric method

CCCCCl [1-chlorobutane] + O=C=O
Details	mass density [kg/m3]
324 K, 13450 kPa, x1 = 0.0483	758
324 K, 13950 kPa, x1 = 0.0483	768
324 K, 14450 kPa, x1 = 0.0483	778
324 K, 15020 kPa, x1 = 0.0483	788
327.6 K, 8120 kPa, x1 = 0.0243	244
327.6 K, 8180 kPa, x1 = 0.0243	249
327.6 K, 8250 kPa, x1 = 0.0243	253
327.6 K, 8320 kPa, x1 = 0.0243	258
327.6 K, 8390 kPa, x1 = 0.0243	263
327.6 K, 8460 kPa, x1 = 0.0243	268
327.6 K, 8480 kPa, x1 = 0.1488	758
327.6 K, 8520 kPa, x1 = 0.0243	274
327.6 K, 8590 kPa, x1 = 0.0243	279
327.6 K, 8670 kPa, x1 = 0.0243	285
327.6 K, 8710 kPa, x1 = 0.1488	762
327.6 K, 8750 kPa, x1 = 0.0243	291
327.6 K, 8820 kPa, x1 = 0.0243	298
327.6 K, 8880 kPa, x1 = 0.0243	304
327.6 K, 8920 kPa, x1 = 0.0981	692
327.6 K, 8920 kPa, x1 = 0.1488	766
327.6 K, 8950 kPa, x1 = 0.0243	311
327.6 K, 9040 kPa, x1 = 0.0243	318
327.6 K, 9050 kPa, x1 = 0.0981	698
327.6 K, 9110 kPa, x1 = 0.0243	326
327.6 K, 9140 kPa, x1 = 0.1488	770
327.6 K, 9180 kPa, x1 = 0.0243	334
327.6 K, 9200 kPa, x1 = 0.0981	704
327.6 K, 9270 kPa, x1 = 0.0243	343
327.6 K, 9350 kPa, x1 = 0.0243	352
327.6 K, 9360 kPa, x1 = 0.0981	711
327.6 K, 9370 kPa, x1 = 0.1488	774
327.6 K, 9410 kPa, x1 = 0.0243	359
327.6 K, 9410 kPa, x1 = 0.0483	469
327.6 K, 9430 kPa, x1 = 0.0483	473
327.6 K, 9460 kPa, x1 = 0.0243	364
327.6 K, 9470 kPa, x1 = 0.0483	480
327.6 K, 9520 kPa, x1 = 0.0483	487
327.6 K, 9530 kPa, x1 = 0.0981	718
327.6 K, 9570 kPa, x1 = 0.0483	494
327.6 K, 9600 kPa, x1 = 0.1488	778
327.6 K, 9620 kPa, x1 = 0.0483	502
327.6 K, 9670 kPa, x1 = 0.0483	510
327.6 K, 9730 kPa, x1 = 0.0483	518
327.6 K, 9730 kPa, x1 = 0.0981	725
327.6 K, 9790 kPa, x1 = 0.0483	526
327.6 K, 9850 kPa, x1 = 0.1488	781
327.6 K, 9860 kPa, x1 = 0.0483	535
327.6 K, 9930 kPa, x1 = 0.0483	544
327.6 K, 9940 kPa, x1 = 0.0981	731
327.6 K, 10010 kPa, x1 = 0.0483	553
327.6 K, 10090 kPa, x1 = 0.0483	562
327.6 K, 10110 kPa, x1 = 0.1488	785
327.6 K, 10190 kPa, x1 = 0.0483	572
327.6 K, 10200 kPa, x1 = 0.0981	739
327.6 K, 10290 kPa, x1 = 0.0483	582
327.6 K, 10410 kPa, x1 = 0.0483	593
327.6 K, 10410 kPa, x1 = 0.1488	790
327.6 K, 10450 kPa, x1 = 0.0981	746
327.6 K, 10540 kPa, x1 = 0.0483	604
327.6 K, 10690 kPa, x1 = 0.0483	615
327.6 K, 10720 kPa, x1 = 0.1488	794
327.6 K, 10770 kPa, x1 = 0.0981	754
327.6 K, 10810 kPa, x1 = 0.0483	623
327.6 K, 10910 kPa, x1 = 0.0483	629
327.6 K, 11000 kPa, x1 = 0.0483	635
327.6 K, 11050 kPa, x1 = 0.1488	798
327.6 K, 11060 kPa, x1 = 0.0483	639
327.6 K, 11110 kPa, x1 = 0.0981	761
327.6 K, 11140 kPa, x1 = 0.0483	644
327.6 K, 11220 kPa, x1 = 0.0483	648
327.6 K, 11380 kPa, x1 = 0.1488	802
327.6 K, 11460 kPa, x1 = 0.0981	769
327.6 K, 11770 kPa, x1 = 0.1488	806
327.6 K, 11880 kPa, x1 = 0.0981	777
327.6 K, 12150 kPa, x1 = 0.1488	811
327.6 K, 12330 kPa, x1 = 0.0981	785
327.6 K, 12530 kPa, x1 = 0.1488	815
327.6 K, 12830 kPa, x1 = 0.0981	792
327.6 K, 12950 kPa, x1 = 0.1488	819
327.6 K, 13400 kPa, x1 = 0.1488	823
327.6 K, 13410 kPa, x1 = 0.0981	802
327.6 K, 13890 kPa, x1 = 0.1488	828
327.6 K, 14220 kPa, x1 = 0.0981	813
327.6 K, 14350 kPa, x1 = 0.1488	832
327.6 K, 14900 kPa, x1 = 0.1488	837
